# From patent publication US5594009A, “Fused pyrrolocarbazoles” (priority 1995, dated 1997)
# Columns and labels:
# human keratinocytes = conditions: cited from earlier work
# [1] = test system: choline acetyltransferase (ChAT) activity in dissociated rat embryonic spinal cord culture; test: Spinal Cord ChAT Activity Assay; type: cell-based; conditions: ChAT measured after 48 hours
# Experimental: In these assays, a fused pyrrolocarbazole was directly added to a dissociated spinal cord culture. […] The fused pyrrolocarbazole was added on the same day the dissociated spinal cord cell culture was initiated.
# Methods: Fetal rat spinal cord cells were dissociated, and experiments were performed as described (Smith et al., J. Cell Biology., 101:1608-1621 (1985); Glicksman et al., J. Neurochem. 61:210-221 (1993)). Dissociated cells were prepared from spinal cords dissected from rats (embryonic day 14-15) by standard trypsin dissociation techniques (Smith et al., J. Cell Biology 10:1608-1621 (1985)). Cells were plated at 6×10^5 cells/cm^2 on poly-1-ornithine coated plastic tissue culture wells in serum-free N2 medium supplemented with 0.05% bovine serum albumin (BSA) (Bottenstein et al., PNAS USA 514-517 (1979)). Cultures were incubated at 37° C. in a humidified atmosphere of 5% CO2 /95% air for 48 hours. ChAT activity was measured after 2 days it vitro using a modification of the Fonnum procedure (Fonnum, J. Neurochem. 24:407-409 (1975)) according to McManaman et al. and Glicksman et al. (McManaman et al., Developmental Biology 125:311-320 (1988); Glicksman et al., J. Neurochem. 61:210-221 (1993)).
# [2] = test system: ChAT activity of basal forebrain cultures; test: Basal Forebrain ChAT Activity Assay; type: cell-based, rat
# Summary of the method: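 Basal forebrain neurons from E17–18 rat embryos were Dispase-dissociated and plated at 5×10^4 cells/well on poly-ornithine/laminin. Cultures were kept in serum-free N2 medium with 0.05% BSA at 37° C. ChAT activity was measured 5 days after plating as the read-out for compound-induced increase.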
# protein kinase C = test: PKC Activity Inhibition Assay; type: biochemical
# Experimental: Fused pyrrolocarbazoles inhibited the activity of protein kinase C (Table VI). The protein kinase C assay has been disclosed (Murakata et al., U.S. Pat. No. 4,923,986; Kikkawa et al., J. Biol. Chem. 257:13341-13348 (1982)). The assay was performed with several concentrations of fused pyrrolocarbazoles. The concentration at which protein kinase C was 50% inhibited (IC50) was determined.
# [3] = test system: NT-3 induced ChAT activity of rat basal forebrain cultures; test: Enhancement of Neurotrophin (NT-3) Activity Assay, ChAT activity in basal forebrain cultures; type: cell-based
# Experimental: Fused pyrrolocarbazoles were tested for the ability to enhance the activity of the neurotrophin NT-3 in basal forebrain cultures. ChAT activity was assayed as a measure of cholinergic neuron function and survival. The concentration of NT-3 (100 ng/ml) used in these experiments increased ChAT activity over control cultures (untreated with NT-3 or a fused pyrrolocarbazole) by 140%.
# Methods. Basal forebrain cultures were prepared from embryonic rats (embryonic day 17) and dissociated with the neutral protease Dispase™. Cells were plated at a density of 4×10^5 cells/cm^2 on poly-1-ornithine coated plastic tissue culture plates in a mixture of DMEM and F12 media (50/50 v/v GIBCO) supplemented with 5% horse serum and 0.5% fetal bovine serum. Cells were incubated at 37° C. in a humidified atmosphere of 5% CO2 /95% air for 5 days. ChAT activity was measured as described in Example III(A)(1).
# Recombinant rat NT-3 was produced by using a recombinant baculovirus expression vector under the control of the polyhedron virus promoter (Fraser, In Vitro Cell. and Dev. Biol. 25:225-235 (1989)). The plasmid pXM-NT3 (Hallbook et al., Neuron 6:845-858 (1991), which contained the rat NT-3 cDNA clone, was provided by Dr. Ira Black (University of Medicine and Dentistry of New Jersey, Piscataway, N.J.). NT-3 cDNA was subcloned into the transfer vector pVL1392 (In Vitrogen Corp., San Diego, Calif.) for recombinant virus production. Recombinant baculovirus was produced as described in Meyer et al. (Meyer at al., J. Neurochem 62:825-833 (1994)).
# [4] = test system: chick dorsal root ganglion neurons; test: DRG Neurite Outgrowth Assay; type: cell-based; conditions: compound concentration 200 nM; 48 hours
# Experimental: Fused pyrrolocarbazoles promoted nerve fiber (i.e., neurite) outgrowth in explant (i.e., primary) cultures of chick dorsal root ganglion neurons. Dorsal root ganglion (i.e., DRG) nerve fiber outgrowth was increased when a fused pyrrolocarbazole was added to cultures at a concentration of 200 nM (Table IV). Control cultures consisted of: 1) no added NGF or fused pyrrolocarbazole ("Control"), or 2) 50 ng/ml NGF, a neurotrophin known to promote neurite extension in DRG cultures ("NGF").
# Methods: Dorsal root ganglia were dissected from chick embryos (embryonic day 9) and individual ganglia were plated on poly-1-ornithine and laminin coated plates. A fused pyrrolocarbazole or 50ng/ml NGF was each added to independent cultures after allowing a 1-2 hour cell attachment period. Explants were cultured for 48 hours in serum-free N2 medium supplemented with 0.05% BSA (Bottenstein et al., PNAS USA 76:514-517 (1979)). Cultures were maintained at 37° C. in a humidified atmosphere, 5% CO2 /95% air. Nerve fiber outgrowth was assessed by the density and length of neurites. It should be apparent to those skilled in the art that neurite extension assays are semi-quantitative and involve a visual comparison between control and experimental neuronal cell cultures (Alberts et al., Molecular Biology of the Cell, 2ed. Garland Publishing, Inc., New York (1989).
# trkA tyrosine kinase = trkA tyrosine kinase (Homo sapiens, UniProt P04629); test: trkA Tyrosine Kinase Activity Inhibition Assay (ELISA); type: biochemical; conditions: 16 μM ATP, 37° C., 15 min; read-out: INHIBITION OF trkA KINASE IC50
# Chain of trkA tyrosine kinase (P04629 33-796): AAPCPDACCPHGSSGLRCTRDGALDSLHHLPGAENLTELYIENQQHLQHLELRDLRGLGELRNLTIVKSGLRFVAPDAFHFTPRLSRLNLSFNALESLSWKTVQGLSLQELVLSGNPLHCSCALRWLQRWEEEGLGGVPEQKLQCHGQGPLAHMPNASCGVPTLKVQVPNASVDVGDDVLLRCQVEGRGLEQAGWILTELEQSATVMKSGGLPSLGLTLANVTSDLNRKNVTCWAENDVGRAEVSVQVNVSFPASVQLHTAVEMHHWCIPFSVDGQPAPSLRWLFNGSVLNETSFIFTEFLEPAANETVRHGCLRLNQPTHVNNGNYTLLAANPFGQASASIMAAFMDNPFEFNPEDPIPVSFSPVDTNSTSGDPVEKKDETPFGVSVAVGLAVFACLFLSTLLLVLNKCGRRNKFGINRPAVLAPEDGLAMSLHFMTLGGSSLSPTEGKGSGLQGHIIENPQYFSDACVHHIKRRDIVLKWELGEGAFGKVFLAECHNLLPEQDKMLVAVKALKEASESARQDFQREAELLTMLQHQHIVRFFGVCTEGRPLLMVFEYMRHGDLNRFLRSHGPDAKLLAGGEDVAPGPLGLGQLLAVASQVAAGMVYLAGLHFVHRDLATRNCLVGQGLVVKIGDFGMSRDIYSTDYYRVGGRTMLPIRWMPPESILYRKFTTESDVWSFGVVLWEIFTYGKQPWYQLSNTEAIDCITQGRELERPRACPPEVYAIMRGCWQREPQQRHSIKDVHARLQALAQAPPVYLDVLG
# protein kinase C ("PKC") = conditions: cited from earlier work
# [5] = test system: transcription of IFNα genes; conditions: not associated with the inhibition of protein kinase C; cited from earlier work
# trk tyrosine kinase = conditions: cited from earlier work
compound,measurement,setting,value
NGF: a neurotrophin known to promote neurite extension in DRG cultures,proliferation of human keratinocytes,human keratinocytes,stimulates the proliferation of human keratinocytes in culture
"O=C1NC(=O)c2c1c1c(c3[nH]c4ccccc4c23)Cc2ccccc2-1 [Compound I-1, 6H, 12H, 13H-Indeno[2,3-a]pyrrolo[3,4-c]carbazole-5,7(5H, 7H))-dione]","Spinal Cord ChAT Activity, % of Control, untreated cultures",[1],148 % of Control
same,ChAT Activity (% of Control),[2]; 100 nM,inactive
same,ChAT Activity (% of Control),[2]; 250 nM,inactive
same,ChAT Activity (% of Control),[2]; 500 nM,inactive
same,IC50,protein kinase C,70 nM
same,ChAT activity in the absence of NT-3,"[3]; compound added alone to basal forebrain neurons, no NT-3",no effect on ChAT activity
same,ChAT activity in the presence of NT-3,[3]; with 100 ng/ml NT-3,enhanced ChAT activity
same,DRG Neurite Outgrowth,[4],modest number of neurites
same,IC50,trkA tyrosine kinase,> 1000 nM
COC(=O)[C@@]1(O)C[C@H]2O[C@]1(C)n1c3ccccc3c3c4c(c5c6ccccc6n2c5c31)C(=O)NC4 [Compound K-252a],inhibition of protein kinase C,"protein kinase C (""PKC"")",inhibitor
same,inhibition of transcription of IFNα genes,[5],inhibit the transcription of IFNα genes
same,inhibition of trk tyrosine kinase,trk tyrosine kinase,inhibitor
same,NGF-stimulated proliferation of human keratinocytes,human keratinocytes,prevents such proliferation
